Measurements published in ChEMBL document CHEMBL1134054, “p38 kinase inhibitors for the treatment of arthritis and osteoporosis: thienyl, furyl, and pyrrolyl ureas” (Bioorg Med Chem Lett, 2001).

Tests used:
[1] = biological target: T1, Mitogen-activated protein kinase 14 (Homo sapiens, UniProt Q16539); experiment: Percent inhibition determined in vitro against mitogen-activated protein kinase p38 alpha 2 derived from Escherichia coli at 5 uM
[2] = biological target: T1, Mitogen-activated protein kinase 14; experiment: Inhibition of Mitogen-activated protein kinase p38 alpha 2
[3] = biological target: T1, Mitogen-activated protein kinase 14; experiment: In vitro inhibition of mitogen-activated protein kinase p38 alpha 2 derived from Escherichia coli
SW1353 = experiment: Inhibition of IL-6 production by SW1353 cells treated with both cytokines IL-1 and TNF-alpha.; assay type: functional, cell-based; settings: Homo sapiens
[4] = biological target: T1, Mitogen-activated protein kinase 14; experiment: Inhibition of p38 alpha-2 kinase

T1 sequence (Q16539 whole entry): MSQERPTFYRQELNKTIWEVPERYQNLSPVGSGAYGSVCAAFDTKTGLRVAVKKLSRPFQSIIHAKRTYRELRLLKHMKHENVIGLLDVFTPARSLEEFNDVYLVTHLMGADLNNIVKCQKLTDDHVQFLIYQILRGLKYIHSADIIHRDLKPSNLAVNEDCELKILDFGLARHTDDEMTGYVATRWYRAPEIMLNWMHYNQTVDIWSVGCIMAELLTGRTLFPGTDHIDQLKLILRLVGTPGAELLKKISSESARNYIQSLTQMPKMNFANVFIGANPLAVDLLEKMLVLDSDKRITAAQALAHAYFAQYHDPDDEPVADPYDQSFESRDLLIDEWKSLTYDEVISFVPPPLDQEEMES

Row | SMILES | inhibition [1] | IC50 [3] | also measured
1 | COC(=O)c1sc(C(C)C)cc1NC(=O)Nc1ccc(C)cc1 | 37% | – | –
2 | COCCOC(=O)c1sc(C(C)(C)C)cc1NC(=O)Nc1ccc(C)cc1 | – | – | IC50 [2]: 464 nM
3 | Cc1ccc(NC(=O)Nc2cc(C(C)(C)C)sc2C(=O)OC(C)C)cc1 | – | – | IC50 [2]: 741 nM
4 | COC(=O)c1sc(CCC(C)C)cc1NC(=O)Nc1ccc(C)cc1 | 8% | – | –
5 | COC(=O)c1sc(CC(C)C)cc1NC(=O)Nc1ccc(C)cc1 | 0% | – | –
6 | Cc1ccc(NC(=O)Nc2cc(C(C)(C)C)sc2C(=O)OCCCO)cc1 | – | – | IC50 [2]: 56 nM
7 | CCc1ccc(NC(=O)Nc2cc(C(C)(C)C)sc2C(=O)NC)cc1 | 70% | 119 nM | –
8 | CNC(=O)c1sc(C(C)(C)C)cc1NC(=O)Nc1ccc(C)cc1 | – | – | IC50 (SW1353): 1350 nM; IC50 [2]: 34 nM
9 | CNC(=O)c1oc(C(C)(C)C)cc1NC(=O)Nc1ccc(C)cc1 | – | 32 nM | –
10 | CCCOC(=O)c1sc(C(C)(C)C)cc1NC(=O)Nc1ccc(C)cc1 | – | – | IC50 [2]: 482 nM
11 | COC(=O)c1sc(N)cc1NC(=O)Nc1ccc(C)cc1 | 90% | – | IC50 [2]: 441 nM
12 | COC(=O)c1sc(C(C)(C)C)cc1NC(=O)Nc1ccc(C(C)=O)cc1 | 21% | – | –
13 | COC(=O)c1sc(C(C)(C)C)cc1NC(=O)Nc1ccc(C(=O)O)cc1 | 4% | – | –
14 | COC(=O)c1sc(C(C)(C)C)cc1NC(=O)Nc1ccc([N+](=O)[O-])cc1 | 16% | – | –
15 | COC(=O)c1sc(C(C)(C)O)cc1NC(=O)Nc1ccc(C)cc1 | 34% | – | –
16 | CCOC(=O)c1sc(C(C)(C)C)cc1NC(=O)Nc1ccc(C)cc1 | – | – | IC50 [2]: 3020 nM
17 | COC(=O)COC(=O)c1sc(C(C)(C)C)cc1NC(=O)Nc1ccc(C)cc1 | – | – | IC50 [2]: 5310 nM
18 | COC(=O)c1sc(C(C)(C)C)cc1NC(=O)Nc1ccc(C(C)C)cc1 | 10% | – | –
19 | COC(=O)c1sc([N+](=O)[O-])cc1NC(=O)Nc1ccc(C)cc1 | 0% | – | –
20 | Cc1ccc(NC(=O)Nc2cc(C(C)(C)C)sc2C(=O)OCCO)cc1 | – | – | IC50 [2]: 57 nM
21 | CNC(=O)c1sc(C(C)(C)C)cc1NC(=O)Nc1ccc(C(C)C)cc1 | 63% | 270 nM | –
22 | CNC(=O)c1sc(C(C)(C)C)cc1NC(=O)Nc1ccc(F)cc1 | 80% | 88 nM | –
23 | COC(=O)c1oc(C(C)(C)C)cc1NC(=O)Nc1ccc(Cl)c(Cl)c1 | – | 1200 nM | –
24 | COC(=O)c1sc(CCc2ccccc2)cc1NC(=O)Nc1ccc(C)cc1 | 17% | – | –

Continued, in another order:

Row | inhibition [1] | IC50 [3] | SMILES | also measured
25 | 0% | – | COC(=O)c1sc(-c2ccccc2)cc1NC(=O)Nc1ccc(C)cc1 | –
26 | 6% | – | COC(=O)c1sc(C(C)(C)C)cc1NC(=O)Nc1ccc(-c2ccccc2)cc1 | –
27 | 67% | 210 nM | COC(=O)c1oc(C(C)(C)C)cc1NC(=O)Nc1ccc(F)cc1 | –
28 | 85% | 60 nM | COC(=O)c1[nH]c(C(C)(C)C)cc1NC(=O)Nc1ccccc1Cl | –
29 | 23% | – | COC(=O)c1sc(C(C)(C)C)cc1NC(=O)Nc1ccc(NC(C)=O)cc1 | –
30 | 32% | 947 nM | COC(=O)c1c(NC(=O)Nc2ccccc2)cc(C(C)(C)C)n1C | –
31 | 94% | – | COC(=O)c1sc(C(C)(C)C)cc1NC(=O)Nc1ccc(C)cc1 | IC50 (SW1353): 905 nM; IC50 [2]: 413 nM; IC50 [4]: 248 nM
32 | 68% | 290 nM | COC(=O)c1sc(C(C)(C)C)cc1NC(=O)Nc1ccccc1 | –
33 | 42% | 663 nM | COC(=O)c1c(NC(=O)Nc2ccc(F)cc2)cc(C(C)(C)C)n1C | –
34 | 96% | 28 nM | CNC(=O)c1[nH]c(C(C)(C)C)cc1NC(=O)Nc1cccc2ccccc12 | IC50 (SW1353): 35 nM
35 | 79% | 180 nM | COC(=O)c1sc(C(C)(C)C)cc1NC(=O)Nc1cccc(Cl)c1Cl | –
36 | – | 12 nM | COC(=O)c1[nH]c(C(C)(C)C)cc1NC(=O)Nc1cccc2ccccc12 | IC50 (SW1353): 309 nM
37 | – | 73 nM | COC(=O)c1oc(C(C)(C)C)cc1NC(=O)Nc1ccc(C)cc1 | IC50 (SW1353): 335 nM
38 | 44% | 610 nM | COC(=O)c1sc(C(C)(C)C)cc1NC(=O)Nc1ccc(O)cc1 | –
39 | 40% | 660 nM | CCc1ccc(NC(=O)Nc2cc(C(C)(C)C)sc2C(=O)OC)cc1 | –
40 | 95% | 44 nM | CNC(=O)c1[nH]c(C(C)(C)C)cc1NC(=O)Nc1cccc(Cl)c1Cl | IC50 (SW1353): 16 nM

Row | inhibition [1] | IC50 [3] | SMILES | also measured
41 | 95% | 27 nM | COC(=O)c1[nH]c(C(C)(C)C)cc1NC(=O)Nc1cccc(Cl)c1 | –
42 | 89% | 42 nM | COC(=O)c1[nH]c(C(C)(C)C)cc1NC(=O)Nc1ccc(F)cc1 | IC50 (SW1353): 464 nM
43 | – | 400 nM | COC(=O)c1c(NC(=O)Nc2ccc(C)cc2)cc(C(C)(C)C)n1C | –
44 | 40% | 750 nM | COC(=O)c1sc(C(C)(C)C)cc1NC(=O)Nc1ccc(N)cc1 | –
45 | – | 33 nM | COC(=O)c1[nH]c(C(C)(C)C)cc1NC(=O)Nc1ccc(C)cc1 | IC50 (SW1353): 1140 nM
46 | 8% | – | COC(=O)c1sc(C(C)(C)C)cc1NC(=O)Nc1ccc(OC)cc1 | –
47 | 97% | 32 nM | COC(=O)c1oc(C(C)(C)C)cc1NC(=O)Nc1cccc(Cl)c1Cl | –
48 | 50% | 387 nM | COC(=O)c1c(NC(=O)Nc2cccc(Cl)c2Cl)cc(C(C)(C)C)n1C | –
49 | – | 44 nM | COC(=O)c1[nH]c(C(C)(C)C)cc1NC(=O)Nc1ccccc1 | –
50 | 99% | 6 nM | COC(=O)c1[nH]c(C(C)(C)C)cc1NC(=O)Nc1cccc(Cl)c1Cl | IC50 (SW1353): 79 nM
51 | 76% | 220 nM | COC(=O)c1sc(C(C)(C)C)cc1NC(=O)Nc1ccc(Cl)cc1 | –
52 | 92% | 43 nM | COC(=O)c1[nH]c(C(C)(C)C)cc1NC(=O)Nc1ccc(Cl)cc1 | –
53 | – | 67 nM | CNC(=O)c1[nH]c(C(C)(C)C)cc1NC(=O)Nc1ccc(C)cc1 | IC50 (SW1353): 15 nM
54 | 35% | 830 nM | COC(=O)c1sc(C(C)(C)C)cc1NC(=O)Nc1ccc(F)cc1 | –
55 | 67% | 253 nM | COC(=O)c1c(NC(=O)Nc2cccc3ccccc23)cc(C(C)(C)C)n1C | –
